This passage reports IC50 results from patent US11419869B2, “Dosage forms and regimens for amino acid compounds” (Pliant Therapeutics, Inc., priority 2019, dated 2022).

Structures are written as SMILES. Some results are limits rather than exact numbers.

Sequence of recombinant human integrin αvβ6 (P06756 31-992): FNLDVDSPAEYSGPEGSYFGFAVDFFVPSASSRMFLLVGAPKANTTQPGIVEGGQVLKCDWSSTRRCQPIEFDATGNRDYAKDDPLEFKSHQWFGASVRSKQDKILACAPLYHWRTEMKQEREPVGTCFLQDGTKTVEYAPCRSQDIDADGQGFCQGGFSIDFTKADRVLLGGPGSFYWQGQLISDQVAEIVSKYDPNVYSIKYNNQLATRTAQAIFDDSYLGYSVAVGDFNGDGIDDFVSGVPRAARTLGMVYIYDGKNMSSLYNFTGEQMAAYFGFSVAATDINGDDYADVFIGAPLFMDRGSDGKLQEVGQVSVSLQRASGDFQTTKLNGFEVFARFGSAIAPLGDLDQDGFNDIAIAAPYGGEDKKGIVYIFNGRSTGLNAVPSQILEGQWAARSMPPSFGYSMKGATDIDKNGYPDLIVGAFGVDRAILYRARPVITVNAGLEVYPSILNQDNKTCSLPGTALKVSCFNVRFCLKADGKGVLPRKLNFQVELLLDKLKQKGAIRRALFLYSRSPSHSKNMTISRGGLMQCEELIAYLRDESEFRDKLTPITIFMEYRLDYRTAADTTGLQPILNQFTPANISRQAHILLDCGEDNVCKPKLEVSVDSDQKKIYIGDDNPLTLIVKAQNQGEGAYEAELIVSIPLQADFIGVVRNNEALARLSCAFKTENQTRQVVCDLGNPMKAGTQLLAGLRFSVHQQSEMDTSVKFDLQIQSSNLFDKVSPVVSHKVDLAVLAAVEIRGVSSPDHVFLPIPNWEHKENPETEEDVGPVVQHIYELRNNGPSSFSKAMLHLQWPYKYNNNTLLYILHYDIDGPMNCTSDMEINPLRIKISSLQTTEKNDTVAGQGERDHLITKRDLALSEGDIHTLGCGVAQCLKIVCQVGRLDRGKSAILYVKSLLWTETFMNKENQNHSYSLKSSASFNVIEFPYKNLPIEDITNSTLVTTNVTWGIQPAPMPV
Sequence of recombinant human integrin αvβ6 (P18564 22-707): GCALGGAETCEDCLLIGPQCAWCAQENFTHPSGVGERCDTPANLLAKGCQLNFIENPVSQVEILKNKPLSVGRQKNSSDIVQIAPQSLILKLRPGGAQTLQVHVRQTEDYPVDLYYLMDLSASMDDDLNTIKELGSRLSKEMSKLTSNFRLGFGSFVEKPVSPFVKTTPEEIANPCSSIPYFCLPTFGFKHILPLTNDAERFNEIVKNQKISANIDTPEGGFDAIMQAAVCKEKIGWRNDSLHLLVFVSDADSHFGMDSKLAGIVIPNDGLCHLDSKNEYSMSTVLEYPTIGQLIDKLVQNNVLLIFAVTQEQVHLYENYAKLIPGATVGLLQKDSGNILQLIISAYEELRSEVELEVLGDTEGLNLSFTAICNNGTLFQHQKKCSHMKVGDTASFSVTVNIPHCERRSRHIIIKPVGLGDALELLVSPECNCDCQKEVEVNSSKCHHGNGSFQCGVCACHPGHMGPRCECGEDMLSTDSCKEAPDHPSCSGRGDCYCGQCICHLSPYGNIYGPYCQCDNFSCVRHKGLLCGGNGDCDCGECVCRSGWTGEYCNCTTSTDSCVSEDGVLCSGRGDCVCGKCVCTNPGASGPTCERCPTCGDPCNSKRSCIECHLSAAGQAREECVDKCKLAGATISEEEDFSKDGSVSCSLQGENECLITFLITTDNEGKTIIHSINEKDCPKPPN

The assay addresses recombinant human integrin αvβ6 (Homo sapiens (Human), UniProt P06756+P18564). Briefly: Solid Phase Integrin αvβ6 Binding Assay (Examples B1, B2). The conditions noted are these: TGFβ1 LAP ligand, values given in four ranges, read-out: αvβ6 Inhibition IC50 (nM)-range. In a few lines: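 Plates coated with recombinant human αvβ6 (2 μg/mL) compete compound against recombinant TGFβ1 LAP (0.67 μg/mL) in TBS binding buffer with 0.5 mM MnCl2, 2 h at 25 °C. Bound LAP detected with biotin-anti-hLAP and peroxidase-streptavidin; IC50 by four-parameter logistic regression.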
Regarding `CO[C@H](C)CN(CCCCc1ccc2c(n1)NCCC2)CC[C@H](Nc1ncnc2ccccc12)C(=O)O` [Compound 62, (S)-4-(((R)-2-methoxypropyl) (4-(5,6,7,8-tetrahydro-1,8-naphthyridin-2-yl)butyl)amino)-2-(quinazolin-4-ylamino) butanoic acid], the IC50 is < 50 nM.
For the molecule `COCCN(CCCCc1ccc2c(n1)NCCC2)CC[C@H](Nc1nc(C(F)(F)F)nc2ccccc12)C(=O)O` [Compound 14, (S)-4-((2-methoxyethyl) (4-(5,6,7,8-tetrahydro-1,8-naphthyridin-2-yl)butyl)amino)-2-((2-(trifluoromethyl)quinazolin-4-yl)amino) butanoic acid], the IC50 is < 50 nM.
As to `O=C(O)[C@H](CCN(CCCCc1ccc2c(n1)NCCC2)CCOc1ccccn1)Nc1ncnc2ccccc12` [Compound 49, (S)-4-((2-(pyridin-2-yloxy)ethyl) (4-(5,6,7,8-tetrahydro-1,8-naphthyridin-2-yl)butyl)amino)-2-(quinazolin-4-ylamino) butanoic acid], the IC50 is < 50 nM.
Take `Cc1ccc(OCCN(CCCCc2ccc3c(n2)NCCC3)CC[C@H](Nc2nc(C)nc3cc(F)ccc23)C(=O)O)cn1` [Compound 56, (S)-2-((7-fluoro-2-methylquinazolin-4-yl)amino)-4-((2-((6-methylpyridin-3-yl)oxy)ethyl) (4-(5,6,7,8-tetrahydro-1,8-naphthyridin-2-yl)butyl)amino) butanoic acid]: the IC50 is < 50 nM.
As for `O=C(O)[C@H](CCN(CCCCc1ccc2c(n1)NCCC2)CC(F)F)Nc1ccncn1` [Compound 120, (S)-4-((2,2-difluoroethyl) (4-(5,6,7,8-tetrahydro-1,8-naphthyridin-2-yl)butyl)amino)-2-(pyrimidin-4-ylamino) butanoic acid], the figure is > 1000 nM; as for `O=C(O)[C@H](CCN(CCCCc1ccc2c(n1)NCCC2)CCOc1ccccn1)Nc1ncnc2c(Cl)cccc12` [Compound 48, (S)-2-((8-chloroquinazolin-4-yl)amino)-4-((2-(pyridin-2-yloxy)ethyl) (4-(5,6,7,8-tetrahydro-1,8-naphthyridin-2-yl)butyl)amino) butanoic acid], < 50 nM.
Consider `COCCN(CCCCc1ccc2c(n1)NCCC2)CC[C@H](Nc1ncnc2ccc(F)cc12)C(=O)O` [Compound 19, (S)-2-((6-fluoroquinazolin-4-yl)amino)-4-((2-methoxyethyl) (4-(5,6,7,8-tetrahydro-1,8-naphthyridin-2-yl)butyl)amino) butanoic acid], for which the IC50 is < 50 nM.
As for `N#Cc1cnc(N[C@@H](CCN(CCCCc2ccc3c(n2)NCCC3)CCOc2ccc(F)cc2)C(=O)O)nc1` [Compound 138, (S)-2-((5-cyanopyrimidin-2-yl)amino)-4-((2-(4-fluorophenoxy)ethyl) (4-(5,6,7,8-tetrahydro-1,8-naphthyridin-2-yl)butyl)amino) butanoic acid], the figure is < 50 nM; as for `O=C(O)[C@H](CCN(CCCCc1ccc2c(n1)NCCC2)CC(F)F)Nc1cc(-n2cccn2)ncn1` [Compound 98, (S)-2-((6-(1H-pyrazol-1-yl)pyrimidin-4-yl)amino)-4-((2,2-difluoroethyl) (4-(5,6,7,8-tetrahydro-1,8-naphthyridin-2-yl)butyl)amino) butanoic acid], > 1000 nM.
As for `O=C(O)[C@H](CCN(CCCF)CCCCc1ccc2c(n1)NCCC2)Nc1ncnc2ccccc12` [Compound 30, (S)-4-((3-fluoropropyl) (4-(5,6,7,8-tetrahydro-1,8-naphthyridin-2-yl)butyl)amino)-2-(quinazolin-4-ylamino) butanoic acid], the figure is < 50 nM.
Turning to `CO[C@H](C)CN(CCCCc1ccc2c(n1)NCCC2)CC[C@H](Nc1ncc(C#N)cn1)C(=O)O` [Compound 68, (S)-2-((5-cyanopyrimidin-2-yl)amino)-4-(((R)-2-methoxypropyl) (4-(5,6,7,8-tetrahydro-1,8-naphthyridin-2-yl)butyl)amino) butanoic acid], the 50% inhibitory concentration (IC50) is < 50 nM.
As for `O=C(O)[C@H](CCN(CCCCc1ccc2c(n1)NCCC2)CC(F)F)Nc1ncc(F)cn1` [Compound 121, (S)-4-((2,2-difluoroethyl) (4-(5,6,7,8-tetrahydro-1,8-naphthyridin-2-yl)butyl)amino)-2-((5-fluoropyrimidin-2-yl)amino) butanoic acid], the figure is > 1000 nM; as for `COCCN(CCCCc1ccc2c(n1)NCCC2)CC[C@H](Nc1ncnc2cccc(F)c12)C(=O)O` [Compound 18, (S)-2-((5-fluoroquinazolin-4-yl)amino)-4-((2-methoxyethyl) (4-(5,6,7,8-tetrahydro-1,8-naphthyridin-2-yl)butyl)amino) butanoic acid], < 50 nM; as for `Cc1nc(N[C@@H](CCN(CCCCc2ccc3c(n2)NCCC3)CCOc2cncc(F)c2)C(=O)O)c2ccc(F)cc2n1` [Compound 61, (S)-2-((7-fluoro-2-methylquinazolin-4-yl)amino)-4-((2-((5-fluoropyridin-3-yl)oxy)ethyl) (4-(5,6,7,8-tetrahydro-1,8-naphthyridin-2-yl)butyl)amino) butanoic acid], < 50 nM.
As to `CS(=O)(=O)CCN(CCCCc1ccc2c(n1)NCCC2)CC[C@H](Nc1nc(-c2cccnc2)nc2ccccc12)C(=O)O` [Compound 107, (S)-4-((2-(methylsufonyl)ethyl) (4-(5,6,7,8-tetrahydro-1,8-naphthyridin-2-yl)butyl)amino)-2-((2-(pyridin-3-yl)quinazolin-4-yl)amino) butanoic acid], the IC50 was in the range of 250 to 1000 nM.
For `CS(=O)(=O)CCN(CCCCc1ccc2c(n1)NCCC2)CC[C@H](Nc1cc(-n2cccn2)ncn1)C(=O)O` [Compound 126, (S)-2-((6-(1H-pyrazol-1-yl)pyrimidin-4-yl)amino)-4-((2-(methylsulfonyl)ethyl) (4-(5,6,7,8-tetrahydro-1,8-naphthyridin-2-yl)butyl)amino) butanoic acid], the concentration for half-maximal inhibition (IC50) was > 1000 nM.
Under `N#Cc1cnc(N[C@@H](CCN(CCCCc2ccc3c(n2)NCCC3)CCOc2ccccc2)C(=O)O)nc1` [Compound 111, (S)-2-((5-cyanopyrimidin-2-yl)amino)-4-((2-phenoxyethyl) (4-(5,6,7,8-tetrahydro-1,8-naphthyridin-2-yl)butyl)amino) butanoic acid] stands < 50 nM; under `O=C(O)[C@H](CCN(CCCCc1ccc2c(n1)NCCC2)CCOCC(F)F)Nc1ncnc2ccccc12` [Compound 50, (S)-4-((2-(2,2-difluoroethoxy)ethyl) (4-(5,6,7,8-tetrahydro-1,8-naphthyridin-2-yl)butyl)amino)-2-(quinazolin-4-ylamino) butanoic acid], < 50 nM; under `O=C(O)[C@H](CCN(CCCCc1ccc2c(n1)NCCC2)CCOc1ccccc1)Nc1nc(-c2cccnc2)nc2ccccc12` [Compound 94, (S)-4-((2-phenoxyethyl) (4-(5,6,7,8-tetrahydro-1,8-naphthyridin-2-yl)butyl)amino)-2-((2-(pyridin-3-yl)quinazolin-4-yl)amino) butanoic acid], < 50 nM.
As for `O=C(O)[C@H](CCN(CCCCc1ccc2c(n1)NCCC2)CCOc1ccccc1)Nc1ncnc2[nH]ncc12` [Compound 90, (S)-2-((1H-pyrazolo[3,4-d]pyrimidin-4-yl)amino)-4-((2-phenoxyethyl) (4-(5,6,7,8-tetrahydro-1,8-naphthyridin-2-yl)butyl)amino) butanoic acid], the IC50 was < 50 nM.
In the case of `COCCN(CCCCc1ccc2c(n1)NCCC2)CC[C@H](Nc1ccnc2ccccc12)C(=O)O` [Compound 36, (S)-4-((2-methoxyethyl) (4-(5,6,7,8-tetrahydro-1,8-naphthyridin-2-yl)butyl)amino)-2-(quinolin-4-ylamino) butanoic acid], the IC50 was > 1000 nM.
Under `O=C(O)[C@H](CCN(CCCF)CCCCc1ccc2c(n1)NCCC2)Nc1ncc(C(F)(F)F)cn1` [Compound 137, (S)-4-((3-fluoropropyl) (4-(5,6,7,8-tetrahydro-1,8-naphthyridin-2-yl)butyl)amino)-2-((5-(trifluoromethyl)pyrimidin-2-yl)amino) butanoic acid] stands < 50 nM.
Under `COCCN(CCCCc1ccc2c(n1)NCCC2)CC[C@H](Nc1nccnc1C#N)C(=O)O` [Compound 67, (S)-2-((3-cyanopyrazin-2-yl)amino)-4-((2-methoxyethyl) (4-(5,6,7,8-tetrahydro-1,8-naphthyridin-2-yl)butyl)amino) butanoic acid] stands < 50 nM.
As to `O=C(O)[C@H](CCN(CCCCc1ccc2c(n1)NCCC2)C1CC1)Nc1ncc(C(F)(F)F)cn1` [Compound 114, (S)-4-(cyclopropyl(4-(5,6,7,8-tetrahydro-1,8-naphthyridin-2-yl)butyl)amino)-2-((5-(trifluoromethyl)pyrimidin-2-yl)amino) butanoic acid], the IC50 was < 50 nM.
With `COC[C@@H](F)CN(CCCCc1ccc2c(n1)NCCC2)CC[C@H](Nc1cc(-n2cccn2)ncn1)C(=O)O` [Compound 108, (S)-2-((6-(1H-pyrazol-1-yl)pyrimidin-4-yl)amino)-4-(((S)-2-fluoro-3-methoxypropyl) (4-(5,6,7,8-tetrahydro-1,8-naphthyridin-2-yl)butyl)amino) butanoic acid], the concentration for half-maximal inhibition (IC50) is > 1000 nM.
For the molecule `O=C(O)[C@H](CCN(CCCCc1ccc2c(n1)NCCC2)CCOc1ccccc1)Nc1ncnc2ccccc12` [Compound 28, (S)-4-((2-phenoxyethyl) (4-(5,6,7,8-tetrahydro-1,8-naphthyridin-2-yl)butyl)amino)-2-(quinazolin-4-ylamino) butanoic acid], the half-inhibitory concentration (IC50) was < 50 nM.
As for `COCCN(CCCCc1ccc2c(n1)NCCC2)CC[C@H](Nc1ncnc2cnccc12)C(=O)O` [Compound 17, (S)-4-((2-methoxyethyl) (4-(5,6,7,8-tetrahydro-1,8-naphthyridin-2-yl)butyl)amino)-2-(pyrido[3,4-d]pyrimidin-4-ylamino) butanoic acid], the figure is < 50 nM.
